One block for each compound: values may come before it.
How the values were obtained:
Type in all cases: in vivo, Wistar rats
[1] = tested on: Tp53 mRNA; test: Quantification of Tp53 mRNA in kidney tissue (RT-qPCR); conditions: 50 mg/kg b.w. together with cDDP 6 mg/kg b.w.
Protocol: These were administered via gavage at 72 h, 48 h, 24h or 30 min before the intraperitoneal administration of saline solution or the antitumoral agent cDDP, which was used as a damage-inducing agent. Total RNA was extracted from kidney tissue using the SV Total Isolation System kit (Promega, Madison, WI, USA), according the manufacturer's instructions. […] The extracted RNA was converted to cDNA using the SuperScriptTM III kit (Invitrogen, Carlsbad, CA, USA), and RT-qPCR was performed in a CFX96 Real-Time PCR Detection System (Bio-Rad, CA, USA) using the Bio-Rad Real-Time PCR system with ABsoluteTM QPCR SYBR1 Green Mix (Invitrogen, Carlsbad, CA, USA), where fluorescence detection was performed following each annealing/extension cycle. The following reference genes were tested for suitability: b-actin (b-actin-forward: […] reverse: […] (GAPDH-forward: […]-reverse: [NT] and […]-forward: […]-reverse [NT] Based on stability, we selected b-actin as the endogenous control gene for RT-qPCR. Gene-specific primers for Tp53 (Tp53-forward: [NT]; Tp53-reverse: […] Louis, MO, USA). RT-qPCR efficiencies for Tp53 and b-actin were satisfactory, and the relative expression of Tp53 mRNA was normalized to the amount of b-actin using the method of relative 2^-ΔΔCt quantification described by [Livak and Schmittgen (2001)].

[2] = Cell viability by Trypan blue dye exclusion, peripheral blood cells; conditions: male, Wistar, rat, peripheral blood cells, oral, % in relation to saline solution group
Protocol: (§1) These were administered via gavage at 72 h, 48 h, 24h or 30 min before the intraperitoneal administration of saline solution or the antitumoral agent cDDP, which was used as a damage-inducing agent. The alkaline version of the comet assay was performed according to protocols proposed by [Singh et al. (1988)] and [Tice et al. (2000)], with minor modifications (the slides were stained with GelRed, 1:10,000, Biotium-USA). To check for possible cytotoxic effects of the treatments, cell viability was determined via the Trypan blue dye exclusion method. […] Following lysis, the slides were placed in a horizontal electrophoresis unit containing 300 mM NaOH and 1 mM EDTA (pH > 13) for 20 min at an electric field strength of 0.78 V/cm (25 V and 300 mA). The slides were neutralized and stained with Gel Red (1:10,000). A total of 100 nucleoids per animal (two slides of 50 nucleoids each) were analysed at a 400x magnification using a fluorescence microscope (Axiostar, Zeiss, Germany) equipped with a 515-560 nm excitation filter, a 590 nm barrier filter and an integrated digital camera. Tail intensity (% tail DNA) was evaluated using the Comet Assay IV software (Perceptive Instruments, Suffolk, UK).

[3] = tested on: kidney cells; test: Alkaline comet assay, kidney cells
Protocol: as §1, with “agent. The body weights of the rats were recorded daily. At 24 h after cDDP administration (5th day), the animals were euthanized for sample collection. […] The same animals were used in genotoxicity assays (micronucleus test and comet assay) and biochemical tests (GSH and TBARS), as well as for the expression analysis of the Tp53 gene.” for “agent.”

[4] = tested on: peripheral blood cells; test: Alkaline comet assay, peripheral blood cells
Protocol: as §1, with “agent. The body weights of the rats were recorded daily. At 24 h after cDDP administration (5th day), the animals were euthanized for sample collection. […] The same animals were used in genotoxicity assays (micronucleus test and comet assay) and biochemical tests (GSH and TBARS), as well as for the expression analysis of the Tp53 gene.” for “agent.”

[5] = tested on: reduced glutathione (GSH) in kidney tissue; test: GSH level in the kidney; conditions: for GSH: kidney
Protocol: These were administered via gavage at 72 h, 48 h, 24h or 30 min before the intraperitoneal administration of saline solution or the antitumoral agent cDDP, which was used as a damage-inducing agent. The body weights of the rats were recorded daily. At 24 h after cDDP administration (5th day), the animals were euthanized for sample collection. […] The same animals were used in genotoxicity assays (micronucleus test and comet assay) and biochemical tests (GSH and TBARS), as well as for the expression analysis of the Tp53 gene. GSH concentrations in kidney tissue were determined according to method described by [Sedlak and Lindsay (1968)]. […] A 2.0 mL volume of Tris-EDTA buffer (0.2 M, pH 8.9) and 0.1 mL of 5,5 ‘-dithio-bis-2-nitrobenzoic acid (DTNB) in 0.01 M methanol were added to a 0.5 mL aliquot of the supernatant. The samples were maintained at room temperature for 15 min and then read at 412 nm (RayLeigh UV-1601 spectrophotometer). Standard curves were prepared using α-cysteine, and results were expressed as nmol GSH/g protein. The quantification of total proteins was done at 650 nm (RayLeigh UV-1601 spectrophotometer) using Lowry’s method ([Hartree, 1972]).

[6] = Variation in body mass and relative mass of the kidney
Protocol: Male Wistar albino rats, at 5-6 weeks of age and weighing approximately 160 g were obtained from the Animal Facility of the Ribeirão Preto Campus of the University of São Paulo. The animals were divided into 12 groups of six for each treatment. The experimental protocols applied in this study were approved by the Local Ethics Committee for Animal Use (CEUA) of Ribeirão Preto, Brazil, Register No.08.1.1417.53.2. […] These were administered via gavage at 72 h, 48 h, 24h or 30 min before the intraperitoneal administration of saline solution or the antitumoral agent cDDP, which was used as a damage-inducing agent. The body weights of the rats were recorded daily. At 24 h after cDDP administration (5th day), the animals were euthanized for sample collection. […] The same animals were used in genotoxicity assays (micronucleus test and comet assay) and biochemical tests (GSH and TBARS), as well as for the expression analysis of the Tp53 gene.

[7] = tested on: thiobarbituric-acid-reactive substances (TBARS) in kidney tissue; test: TBARS level in the kidney; conditions: for TBARS: kidney
Protocol: These were administered via gavage at 72 h, 48 h, 24h or 30 min before the intraperitoneal administration of saline solution or the antitumoral agent cDDP, which was used as a damage-inducing agent. The body weights of the rats were recorded daily. At 24 h after cDDP administration (5th day), the animals were euthanized for sample collection. […] The same animals were used in genotoxicity assays (micronucleus test and comet assay) and biochemical tests (GSH and TBARS), as well as for the expression analysis of the Tp53 gene. TBARS measurements in kidney tissue were performed according to [Buege and Aust (1978)]. A 0.5 mL aliquot of the homogenate was added to 1 mL of thiobarbituric acid solution (containing 15% trichloroacetic acid and 0.25 M HCl) to a final concentration of […]. This mixture was warmed in a water bath for 15 min and centrifuged for 20 min at 180 x g. The absorbance of the supernatant was determined at 535 nm (UV-VisB582 Micronal spectrophotometer), and the results were expressed as nmol TBARS/mg protein. […] The quantification of total proteins was done at 650 nm (RayLeigh UV-1601 spectrophotometer) using Lowry’s method ([Hartree, 1972]).

[8] = tested on: bone marrow erythrocytes; test: Micronucleus test in bone marrow
Protocol: These were administered via gavage at 72 h, 48 h, 24h or 30 min before the intraperitoneal administration of saline solution or the antitumoral agent cDDP, which was used as a damage-inducing agent. The body weights of the rats were recorded daily. At 24 h after cDDP administration (5th day), the animals were euthanized for sample collection. […] The same animals were used in genotoxicity assays (micronucleus test and comet assay) and biochemical tests (GSH and TBARS), as well as for the expression analysis of the Tp53 gene. The micronucleus test was performed according to the protocol described by [Schmid (1975)]. Bone marrow cells were harvested from rat femurs, mixed with fetal bovine serum, homogenized and centrifuged, and the pellet was resuspended for slide preparations. The slides were then fixed, stained with Giemsa solution and coded. Three slides were produced for each animal. Coded slides were scored under 1000X magnification using a light microscope (Zeiss).

[9] = Cell viability by Trypan blue dye exclusion, kidney cells; conditions: male, Wistar, rat, kidney cells, oral, % in relation to saline solution group
Protocol: as §1

[10] = tested on: peripheral blood cells; test: Cell viability by Trypan blue dye exclusion, peripheral blood cells; conditions: % in relation to saline solution group; GLA gavage + cDDP 6 mg/kg b.w. i.p.
Protocol: as §1

[11] = tested on: kidney cells; test: Cell viability by Trypan blue dye exclusion, kidney cells; conditions: % in relation to saline solution group; GLA gavage + cDDP 6 mg/kg b.w. i.p.
Protocol: as §1

[12] = 50 mg/kg b.w. gavage x4 + cDDP 6 mg/kg b.w. i.p.
[13] = 50 mg/kg b.w. gavage x4 + i.p. saline
[14] = 50 mg/kg b.w. gavage x4 + cDDP 6 mg/kg b.w. i.p., 24 h
[15] = GLA gavage + cDDP 6 mg/kg b.w. i.p.
[16] = GLA gavage + cDDP 6 mg/kg b.w. i.p., 24 h

- % tail DNA, kidney [3, 13]: 5.5 ± 2.8%
- % tail DNA, peripheral blood [4, 13]: 3.2 ± 0.9%
SMILES: COc1cc(C=CC(=O)CC(=O)C=Cc2ccc(O)c(OC)c2)ccc1O [CMN, 1,7-bis[4-hydroxy 3-methoxyphenyl]-1,6-heptadiene-3,5-dione]
- Tp53 expression compared to saline solution group [1]: up-regulated
- viability at 24 h [2, 12]: 99.2 ± 0.7%
- viability at 24 h [2, 13]: 98.7 ± 0.5%
- % tail DNA, kidney [3, 12]: 4.0 ± 0.8%
- Comet assay, in association with cDDP compared to cDDP-only group (in words) ([3]; with cDDP 6 mg/kg b.w.): did not induce significant alterations
- % tail DNA, peripheral blood [4, 12]: 2.1 ± 0.6%
- GSH concentration in renal tissue (in words) ([5]; administered alone): did not alter
- GSH [5, 14]: 17.0 ± 1.4 nmol/mg protein
- GSH [5, 13]: 14.4 ± 1.2 nmol/mg protein
- Body weight variation, interval 2 (day 4 to 5) [6, 12]: 0.1 ± 2.5 g
- Kidney/body weight [6, 12]: 0.90 ± 0.06%
- Body weight variation, interval 1 (days 1 to 4) ([6]; 50 mg/kg b.w. gavage x4 + cDDP 6 mg/kg b.w. i.p. group): 31.8 ± 4.7 g
- Body weight variation, interval 1 (days 1 to 4) [6, 13]: 31.7 ± 6.6 g
- Body weight variation, interval 2 (day 4 to 5) [6, 13]: 8.2 ± 2.4 g
- Kidney/body weight [6, 13]: 0.96 ± 0.05%
- Reduction of body weight gain triggered by cDDP (in words) ([6]; combined application with cDDP): did not alter the reduction of body weight gain
- TBARS concentration in renal tissue (in words) ([7]; administered alone): did not alter
- TBARS [7, 14]: 0.222 ± 0.064 nmol/mg protein
- TBARS [7, 13]: 0.236 ± 0.018 nmol/mg protein
- TBARS levels, administered together with cDDP (in words) ([7]; with cDDP 6 mg/kg b.w., p > 0.05 vs saline solution group): able to maintain the TBARS levels observed in the saline solution group
- Frequency of micronucleated polychromatic erythrocytes, MNPCEs/1000 PCEs [8, 12]: 7.08 ± 3.04 ^# MNPCEs/1000 PCEs
- Frequency of micronucleated polychromatic erythrocytes, MNPCEs/1000 PCEs [8, 13]: 1.91 ± 1.27 MNPCEs/1000 PCEs
- Formation of cDDP-induced micronuclei (in words) ([8]; CMN SD 5, 25 and 50 mg/kg b.w., unmodified CMN 50 mg/kg b.w., p < 0.05): significantly reduced
- viability at 24 h [9, 12]: 88.5 ± 2.2%
- viability at 24 h [9, 13]: 89 ± 2.3%

- % tail DNA, kidney [3, 15]: 3.8 ± 0.7 %
- % tail DNA, peripheral blood [4, 15]: 2.2 ± 0.8%
- GSH [5, 16]: 18.5 ± 0.6 nmol/mg protein
- TBARS [7, 16]: 0.286 ± 0.014 nmol/mg protein
SMILES: [NH2][Pt]([NH2])([Cl])[Cl] [cDDP, Cisplatin]
- Cell viability, peripheral blood [10]: 98.8 ± 0.7%
- Body weight variation, interval 2 (day 4 to 5) [6, 15]: 0.8 ± 2.2 g
- Kidney/body weight [6, 15]: 1.02 ± 0.11%
- Body weight variation, interval 1 (days 1 to 4) ([6]; GLA gavage + cDDP 6 mg/kg b.w. i.p. group): 27.5 ± 6.1 g
- Frequency of micronucleated polychromatic erythrocytes, MNPCEs/1000 PCEs [8, 15]: 12.75 ± 3.32 MNPCEs/1000 PCEs
- PCE/(PCE + NCE) ratio ([8]; in 500 erythrocytes, GLA gavage + cDDP 6 mg/kg b.w. i.p.): 44.8 ± 4.9%
- Cell viability, kidney [11]: 86.5 ± 3.1%

— PMC4763312, “Comparative study of curcumin and curcumin formulated in a solid dispersion: Evaluation of their antigenotoxic effects” (Genetics and Molecular Biology, 2015)
